Reference: PMC12817894, “Two solutions for efficient light-harvesting in phototrophic Gemmatimonadota” (mSystems, 2025)

Biological target: T1, RC (reaction center) of the RC-dLH complex, L and M subunits (Gemmatimonas groenlandica, UniProt A0A6M4ILR2+A0A6M4IPC7)
T1 construct: gene HKW67_08800; native reaction center within the RC-dLH complex purified from Gem. groenlandica cells, DDM-solubilized; RC-U not detected; with Photosynthetic reaction center cytochrome c subunit; Photosynthetic reaction center H subunit, transmembrane part; Photosynthetic reaction center H subunit, cytoplasmic part; Reaction center subunit S
Assay: cryo-EM structure ([…] Å)
Format: binding
Settings: modeled ligand; placement in RC L/M from known biology

T1 sequence (A0A6M4IPC7 1-274): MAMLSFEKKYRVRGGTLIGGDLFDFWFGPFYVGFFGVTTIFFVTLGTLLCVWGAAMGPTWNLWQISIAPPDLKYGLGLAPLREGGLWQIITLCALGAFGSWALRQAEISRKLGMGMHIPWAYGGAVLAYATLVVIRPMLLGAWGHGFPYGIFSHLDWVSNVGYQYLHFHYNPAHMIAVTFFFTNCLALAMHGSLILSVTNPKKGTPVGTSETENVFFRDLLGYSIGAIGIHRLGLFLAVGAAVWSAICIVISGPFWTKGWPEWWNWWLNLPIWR
T1 sequence (A0A6M4ILR2 1-392): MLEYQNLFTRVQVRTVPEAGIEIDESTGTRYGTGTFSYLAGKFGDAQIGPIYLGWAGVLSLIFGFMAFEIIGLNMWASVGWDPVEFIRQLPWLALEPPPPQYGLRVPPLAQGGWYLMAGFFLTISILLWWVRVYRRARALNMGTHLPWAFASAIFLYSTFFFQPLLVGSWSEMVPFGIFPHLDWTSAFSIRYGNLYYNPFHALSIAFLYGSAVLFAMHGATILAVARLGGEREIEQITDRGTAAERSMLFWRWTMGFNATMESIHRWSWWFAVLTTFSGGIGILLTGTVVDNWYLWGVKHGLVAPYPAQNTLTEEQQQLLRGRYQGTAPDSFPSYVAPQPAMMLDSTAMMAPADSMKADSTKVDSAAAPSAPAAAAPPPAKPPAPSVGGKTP

CC[C@H]1c2cc3[nH]c4c(c3C)C(=O)[C@H](C(=O)OC)c4c3nc(cc4[nH]c(cc(n2)[C@@H]1C)c(C(C)=O)c4C)[C@@H](C)[C@@H]3CCC(=O)OC/C=C(\C)CCC[C@H](C)CCC[C@H](C)CCCC(C)C [bacteriopheophytin]
cryo-EM structure (2.3 Å): bacteriochlorophyll, bacteriopheophytin, gemmatoxanthin, dodecyl-maltoside, phosphoethanolamine, heme, water, cardiolipin, menaquinone, and spirilloxanthin
